The text below walks through data of ChEMBL document CHEMBL1134167, “Conformational study of a highly specific CXCR4 inhibitor, T140, disclosing the close proximity of its intrinsic pharmacophores associated with strong anti-HIV activity” (Bioorg Med Chem Lett, 2001).

pEC50: −log10 of the molar value. Where a SMILES comes first, the peptide text is derived from it. Bridges are numbered along the chain shown (N, C = ends). [ ]: non-standard residue; d: D form. Gly(2-naphthyl) = N[C@H](C(=O)O)c1ccc2ccccc2c1; Cit = NC(=O)NCCC[C@H](N)C(=O)O

One may read the pEC50 as the EC50 on a negative log10 scale, so that one unit is a factor of ten.

The subject of the experiment is Human immunodeficiency virus 1. As to the kind of experiment: Effective concentration for HIV-1 inhibition. Format: functional, organism-based.

`NCCCC[C@@H]1NC(=O)[C@H](CCCN=C(N)N)NC(=O)[C@H](Cc2ccc(O)cc2)NC(=O)[C@@H](NC(=O)[C@@H](NC(=O)[C@H](CCCN=C(N)N)NC(=O)[C@@H](N)CCCN=C(N)N)c2ccc3ccccc3c2)CSSC[C@@H](C(=O)N[C@@H](CCCN=C(N)N)C(=O)O)NC(=O)[C@H](CCCNC(N)=O)NC(=O)[C@H](CCCN=C(N)N)NC(=O)[C@H](Cc2ccc(O)cc2)NC(=O)[C@@H]2CCCN2C(=O)[C@@H](CCCCN)NC1=O` (H-RR[Gly(2-naphthyl)]CYRK[dK]PYR[Cit]CR-OH; disulfide 4-13): the pEC50 was 8.46.
